Results taken from publication PMC9318203, “Squaramide-Tethered Sulfonamides and Coumarins: Synthesis, Inhibition of Tumor-Associated CAs IX and XII and Docking Simulations” (International Journal of Molecular Sciences, 2022).

Assays:
hCA I = biological target: T1, hCA I (Homo sapiens, UniProt P00915); assay: stopped-flow CO2 hydrase assay, hCA I; type: biochemical
T1 construct: made in house
Experimental: (§1) For that purpose, the stopped-flow CO2 hydration assay was used (Table 1).
(§2) The inhibitory properties of title compounds against CAs were determined using the stopped-flow CO2 hydrase assay, as previously reported.

hCA IX = biological target: T2, hCA IX (Homo sapiens, UniProt Q16790); assay: stopped-flow CO2 hydrase assay, hCA IX; type: biochemical
T2 construct: made in house
Experimental: as §1, §2

hCA XII = biological target: T3, hCA XII (Homo sapiens, UniProt O43570); assay: stopped-flow CO2 hydrase assay, hCA XII; type: biochemical
T3 construct: made in house
Experimental: as §1, §2

hCA II = biological target: T4, hCA II (Homo sapiens, UniProt P00918); assay: stopped-flow CO2 hydrase assay, hCA II; type: biochemical
T4 construct: made in house
Experimental: as §1, §2

[1] = test system: A549, HBL-100, HeLa, SW1573, T-47D, WiDr; assay: antiproliferative assay (NCI protocol), panel of six human tumor cell lines; type: cell-based; details: normoxic conditions
Experimental: (§3) Some representative compounds (5a–e, 16b, 16e–i) were also tested as potential antiproliferative agents against a panel of six human tumor cell lines: A549 (non-small cell lung), HBL-100 (breast), HeLa (cervix), SW1573 (non-small cell lung), T-47D (breast), WiDr (colon). Unfortunately, no relevant activity was found for the tested compounds.
(§4) Minor modifications of the US National Cancer Institute (NCI) protocol were used.

[2] = test system: A549 (non-small cell lung); assay: antiproliferative assay (NCI protocol), A549; type: cell-based; details: Homo sapiens; line A549; normoxic conditions
Experimental: as §3, §4

[3] = coumarin-containing squaramides, incubation time 6 h, mean from three assays
[4] = sulfonamido-containing squaramides, mean from 3 assays, stopped flow

T1 sequence (P00915 whole entry): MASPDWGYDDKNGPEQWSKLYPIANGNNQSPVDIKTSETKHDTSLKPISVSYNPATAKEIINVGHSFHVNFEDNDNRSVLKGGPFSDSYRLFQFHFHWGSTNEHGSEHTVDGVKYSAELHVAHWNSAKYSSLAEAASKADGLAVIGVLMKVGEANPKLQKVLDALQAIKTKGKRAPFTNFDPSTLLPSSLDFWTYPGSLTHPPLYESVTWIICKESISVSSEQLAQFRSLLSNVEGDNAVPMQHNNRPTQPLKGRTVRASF
T3 sequence (O43570 25-354): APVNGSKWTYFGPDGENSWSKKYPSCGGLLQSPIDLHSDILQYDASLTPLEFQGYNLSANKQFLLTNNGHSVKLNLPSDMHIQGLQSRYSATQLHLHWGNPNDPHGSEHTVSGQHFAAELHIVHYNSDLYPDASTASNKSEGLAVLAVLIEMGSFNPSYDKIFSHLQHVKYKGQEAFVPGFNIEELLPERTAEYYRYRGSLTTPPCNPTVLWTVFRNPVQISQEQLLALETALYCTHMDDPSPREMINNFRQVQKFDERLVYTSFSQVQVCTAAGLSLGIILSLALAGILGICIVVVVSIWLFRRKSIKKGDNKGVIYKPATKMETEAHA

Structure (SMILES) | Ki (hCA I; [3]) [nM] | Ki (hCA IX; [3]) [nM] | Ki (hCA XII; [3]) [nM] | Ki (hCA II; [3]) [nM] | melting point [°C] | GI50 ([1]; all the cell lines) [nM] | Ki (hCA I; [4]) [nM] | S.I. I/IX (hCA IX; Ki (CA I)/Ki (CA IX)) | S.I. II/IX (hCA IX; Ki (CA II)/Ki (CA IX)) | Ki (hCA IX; [4]) [nM] | S.I. I/XII (hCA XII; Ki (CA I)/Ki (CA XII)) | S.I. II/XII (hCA XII; Ki (CA II)/Ki (CA XII)) | Ki (hCA XII; [4]) [nM] | Ki (hCA II; [4]) [nM] | GI50 [2] [nM] | GI50 ([1]; the rest of the cell lines (other than A549)) [nM]
COc1ccc(Nc2c(NCCCCCOc3ccc4c(C)cc(=O)oc4c3)c(=O)c2=O)cc1 [Compound 16e, 3-[(4′-Methoxyphenyl)amino]-4-{[5″-(4‴-methyl-2‴-oxo-2‴H-chromen-7‴-yl)oxypentyl]amino}cyclobut-3-ene-1,2-dione] | > 10000 | 59.7 | 19.5 | > 10000 | 215 to 216 | > 100000 |  |  |  |  |  |  |  |  |  | 
NS(=O)(=O)c1ccc(CCNc2c(NCCc3ccc(S(N)(=O)=O)cc3)c(=O)c2=O)cc1 [Compound 6, 3,4-Bis[2′-(4″-sulfonamidophenyl)ethylamino]cyclobut-3-ene-1,2-dione] |  |  |  |  |  | > 100000 | 43.2 | 0.52 | 0.68 | 83 | 0.49 | 0.64 | 87.8 | 56.2 |  | 
Cc1cc(=O)oc2cc(OCCCCCNc3c(Nc4ccccc4)c(=O)c3=O)ccc12 [Compound 16b, 3-{[5′-((4″-Methyl-2″-oxo-2″H-chromen-7″-yl)oxy)pentyl]amino}-4-phenylaminocyclobut-3-ene-1,2-dione] | > 10000 | 44.1 | 14.3 | > 10000 | > 250 |  |  |  |  |  |  |  |  |  | 94000 ± 10000 | > 100000
